Bounds are passed on as bounds.

The test system of one data set is Caki1. Kind of data set: Proliferation dose-response IC50, Caki1. The following applies: Homo sapiens, CAKI-1; proliferative IC50, linear regression modeling of dose-response. In kind it is cell-based. The method, then:
Error bars indicate standard deviation for n=2 replicates. […] To evaluate inhibition of SCD1 by these molecules, we used LC/MS to quantify changes in SCD1-catalyzed conversion of stearoyl-CoA to oleoyl-CoA in response to drug treatments in vitro using SCD1 protein extracted from murine liver (Figure 3c, Supplementary Figure 2g). […] Synthesis routes and spectral data including NMR and MS are also provided (Supplementary Figures 3-6).
Cells were seeded at 5,000 cells/well in clear-bottom 96-well plates in triplicate. Drug treatment was applied at 1:1000 in reduced serum conditions (3%). […] Alternatively, cells were plated 2x10^5/well in 12-well plates (Genesee Scientific) in triplicate prior to drug treatment. After 120-hour treatment, cell number was established using a Coulter Particle Counter (Beckman). Oleic acid-albumin (Sigma Aldrich) was added to media at 5µM, and was applied adjuvant to drug treatment. Drug stocks were prepared in DMSO (Sigma) at 1000x. IC50 dosing per cell line was calculated using CalcuSyn analytical software.

Data set [1] concerns ACHN ccRCC pulmonary metastasis. Kind of data set: ACHN pulmonary metastasis model. The format is in vivo, athymic nude mice. The following applies: 180 mg/kg in chow, 28 days. Here is the method: SCD1 expression correlates with poor cancer patient outcomes as evidenced by decreased survival in multiple cancers including gastric, lung, ovarian and renal cell carcinoma (Figure 5a-5b, Supplementary Figure 9a-9b). […] Our findings in thyroid carcinoma similarly present discordancy between tumor response to SCD1 inhibitors and SCD1 expression. SSI-4 was tested in vivo for anti-tumorigenic activity.
Figure 5 SSI-4 attenuates tumor progression Kaplan Meier survival analysis of indicated subtypes of (a) gastric and (b) lung cancer patients sorted into high versus low SCD1 mRNA expression, for multiple disease subtypes. Patient risk assessment at indicated mean follow-up is shown. […] (h) Tumor burden of ACHN pulmonary metastasis in response to SSI-4 treatment (180mg/kg) measured by ex vivo bioluminescent flux, given in photons/second (n=5 per group). ([…]) Tumor burden of ACHN pulmonary metastasis as determined by H&E staining of lungs from (h).
ACHN cells were infected with pSIN Luc Ub Emerald GFP lentivirus construct, a kind gift from Dr. Yasuhiro Ikeda (Mayo Clinic). […] Lesion width was calculated as the mean of all nodules measured (7-12 per mouse), identified by H&E staining.
A498 cells were injected subcutaneously in the flank of athymic nude mice at 1x10^6/mouse. […] Tumor burden was measured using calipers. […]

A short description of data set [2]: Tolerability of chronic treatment in tumor-bearing animals. In kind it is in vivo, athymic nude mice. Here is the method:
Chronic treatment at the highest dose in tumor-bearing animals appeared to be well tolerated, with ‹10% reduction in body mass even at the highest dose of 600mg/kg after 4.5 weeks of daily treatment (Supplementary Figure S9d).
A498 cells were injected subcutaneously in the flank of athymic nude mice at 1x10^6/mouse. Once tumor burden reached >50mm^3, SSI-4 treatment was administered at 60, 180, or 600 mg/kg in custom AIN76 animal chow (Research Diets, Inc.), given continuously for 4.5 weeks. Tumor burden was measured using calipers. For the lung tumor study, 2 million ACHN- pSIN Luc Ub Emerald GFP cells were injected intravenously in 50µL of PBS in athymic nude mice. 54 days after implantation, animals began SSI-4 treatment (180 mg/kg, chow, continuous) for 28 days. Once therapy was completed, lung tissue was harvested and analyzed for tumor burden via ex vivo bioluminescent imaging, and hematoxylin and eosin (H&E) staining of formalin-fixed, paraffin-embedded lung tissue. 20× images were obtained using Scanscope XT and Imagescope software.
Supplementary Figure 9: Patient survival correlated with SCD1 gene expression. […] (d) Change in body weight (BW) corrected for individual total weight, recorded during in vivo dose-response to SSI-4 in A498 xenograft model (Figure 3g). […]

Consider `CNC(=O)c1ccnc(NC(=O)N2CCC(Oc3ccccc3Cl)CC2)c1` [SSI-4], for which the IC50 in the data set with Caki1 is 0.01 µM. In addition, in data set [1], the “pulmonary metastasis formation of ACHN ccRCC” value is “reduced”. For the same molecule, the primary adverse events entry in data set [2] (reversible upon discontinuation of therapy) is “Ocular changes including bilateral squinting”. In data set [2] (tumor-bearing animals, 600mg/kg, 4.5 weeks of daily treatment), the “reduction in body mass” value is on record as under 10%.

In general, IC50 refers to the concentration that gives 50% inhibition. Higher therefore signals lower potency.

Values taken from article PMC5787466, “Accelerated bottom-up drug design platform enables the discovery of novel stearoyl-CoA desaturase 1 inhibitors for cancer therapy” (Oncotarget, 2017).
